According to paper PMC7589200, “Identification of Putative Non-Substrate-Based XT-I Inhibitors by Natural Product Library Screening” (Biomolecules, 2020):
Where two headings read alike, the source gives them in different places.

Molecular target: T1, recombinant human XT-I (Homo sapiens, UniProt Q86Y38)
T1 sequence (Q86Y38 252-959 limits assumed): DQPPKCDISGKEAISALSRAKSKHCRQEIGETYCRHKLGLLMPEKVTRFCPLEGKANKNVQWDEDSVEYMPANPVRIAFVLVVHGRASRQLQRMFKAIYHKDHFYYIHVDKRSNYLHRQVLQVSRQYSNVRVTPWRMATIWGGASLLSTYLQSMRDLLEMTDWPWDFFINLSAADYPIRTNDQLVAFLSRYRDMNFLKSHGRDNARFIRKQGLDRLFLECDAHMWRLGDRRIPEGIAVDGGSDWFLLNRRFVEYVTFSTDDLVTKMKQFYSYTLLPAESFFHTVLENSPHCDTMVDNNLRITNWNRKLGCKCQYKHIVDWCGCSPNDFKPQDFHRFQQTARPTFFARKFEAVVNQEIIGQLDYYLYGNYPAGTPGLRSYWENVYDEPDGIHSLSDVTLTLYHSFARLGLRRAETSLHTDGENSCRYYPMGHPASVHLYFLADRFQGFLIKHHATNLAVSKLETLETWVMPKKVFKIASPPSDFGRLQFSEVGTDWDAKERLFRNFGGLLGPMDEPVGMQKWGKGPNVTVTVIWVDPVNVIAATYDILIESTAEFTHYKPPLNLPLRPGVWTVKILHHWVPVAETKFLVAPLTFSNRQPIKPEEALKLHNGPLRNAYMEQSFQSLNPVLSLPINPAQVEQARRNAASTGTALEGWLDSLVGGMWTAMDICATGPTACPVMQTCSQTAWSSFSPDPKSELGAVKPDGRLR
Assay: NP library inhibitor screening, UPLC/ESI-MS/MS XT-I assay
Type: biochemical

[1] = Table S1, 50 μM inhibitor, relative to negative control containing DMSO, technical duplicates
[2] = Table 2, 50 μM inhibitor, relative to control (DMSO = 100%), technical duplicates

remaining activity at 50 µM [1] [%]	Compound	other results
106	CC1=CC(=O)c2ccccc2C1=O [Compound 66, Menadione]	–
94	C[C@@H](c1ncncc1F)[C@](O)(Cn1cncn1)c1ccc(F)cc1F [Compound 70, Voriconazole]	–
83	CCN1CCN(C(=O)N[C@@H](C(=O)N[C@@H]2C(=O)N3C(C(=O)O)=C(CSc4nnnn4C)CS[C@H]23)c2ccc(O)cc2)C(=O)C1=O [Compound 71, Cefoperazone]	–
84	CC1=C(/C=C/C(C)=C/C=C/C(C)=C/C(=O)O)C(C)(C)CCC1 [Compound 72, Tretinoin]	–
113	CC(=O)[C@H]1CC[C@H]2[C@@H]3CCC4=CC(=O)CC[C@]4(C)[C@H]3CC[C@]12C [Compound 73, Progesterone]	–
113	C[C@H](CCC(=O)O)[C@H]1CC[C@H]2[C@@H]3[C@H](O)C[C@@H]4C[C@H](O)CC[C@]4(C)[C@H]3CC[C@]12C [Compound 75, Chenodeoxycholic Acid]	–
109	Cc1ncc([N+](=O)[O-])n1CCO [Compound 76, Metronidazole]	–
107	COc1c2occc2cc2ccc(=O)oc12 [Compound 77, Methoxsalen]	–
86	CCCCCCCCCC(=O)N[C@@H](Cc1c[nH]c2ccccc12)C(=O)N[C@H](CC(N)=O)C(=O)N[C@@H](CC(=O)O)C(=O)N[C@@H]1C(=O)NCC(=O)N[C@@H](CCCN)C(=O)N[C@@H](CC(=O)O)C(=O)N[C@H](C)C(=O)N[C@@H](CC(=O)O)C(=O)NCC(=O)N[C@H](CO)C(=O)N[C@@H]([C@H](C)CC(=O)O)C(=O)N[C@@H](CC(=O)c2ccccc2N)C(=O)O[C@@H]1C [Compound 80, Daptomycin]	–
71	N[C@@H](C(=O)N[C@@H]1C(=O)N2C(C(=O)O)=C(Cl)CS[C@H]12)c1ccccc1 [Compound 81, Cefaclor]	–
126	COc1cnc(NS(=O)(=O)c2ccc(N)cc2)nc1 [Compound 82, Sulfameter]	–
120	C[C@]12CC[C@@H]3c4ccc(O)cc4CC[C@H]3[C@@H]1CCC2=O [Compound 83, Estrone]	–
128	C[C@]12CC[C@@H]3c4ccc(O)cc4CC[C@H]3[C@@H]1CC[C@@H]2O [Compound 84, Estradiol]	–
130	CCc1cc(C(N)=S)ccn1 [Compound 85, Ethionamide]	–
43	COc1cc(/C=C/C(=O)CC(=O)/C=C/c2ccc(O)c(OC)c2)ccc1O [Compound 86, Curcumin]	XT-I Activity [%] [2]: 43%
136	Clc1ccc(C(Cn2ccnc2)OCc2ccsc2Cl)c(Cl)c1 (stereo not shown) [Compound 87, Tioconazole]	–
149	Clc1ccc(COC(Cn2ccnc2)c2ccc(Cl)cc2Cl)c(Cl)c1 (stereo not shown) [Compound 88, Miconazole Nitrate]	–
111	Cc1nnc(NS(=O)(=O)c2ccc(N)cc2)s1 [Compound 89, Sulfamethizole]	–
138	CC1(C)[C@H](C(=O)O)N2C(=O)C[C@H]2S1(=O)=O [Compound 90, Sulbactam]	–
150	C[C@@H]1C(=O)O[C@H]2C[C@@]34[C@H]5C[C@@H](C(C)(C)C)[C@]36[C@@H](OC(=O)[C@@H]6O)O[C@@]4(C(=O)O5)[C@]21O [Compound 95, Ginkgolide A]	–

The remaining lines, values behind:

Compound	remaining activity at 50 µM [1] [%]	other results
C[C@H]1O[C@H](O[C@H]2[C@H](O)[C@@H](O)[C@@H](O[C@H]3[C@H](O)[C@@H](O)C(O)O[C@@H]3CO)O[C@@H]2CO)[C@H](O)[C@@H](O)[C@@H]1N[C@H]1C=C(CO)[C@@H](O)[C@H](O)[C@H]1O (stereo partly shown) [Compound 46, Acarbose]	92	–
COc1c(N2CCNC(C)C2)c(F)cc2c(=O)c(C(=O)O)cn(C3CC3)c12 (stereo not shown) [Compound 47, Gatifloxacin]	98	–
CN(C)c1cc(NC(=O)CNC(C)(C)C)c(O)c2c1C[C@H]1C[C@H]3[C@H](N(C)C)C(O)=C(C(N)=O)C(=O)[C@@]3(O)C(O)=C1C2=O [Compound 48, Tigecycline]	59	–
C=CC1=C(C(=O)O)N2C(=O)[C@@H](NC(=O)/C(=N\O)c3csc(N)n3)[C@H]2SC1 [Compound 49, Cefdinir]	72	–
NC(=O)N/N=C/c1ccc([N+](=O)[O-])o1 [Compound 50, Nitrofural]	104	–
Nc1ccc(S(N)(=O)=O)cc1 [Compound 51, Sulfanilamide]	118	–
CO/N=C(\C(=O)N[C@@H]1C(=O)N2C(C(=O)OCOC(=O)C(C)(C)C)=C(/C=C\c3scnc3C)CS[C@H]12)c1csc(N)n1 [Compound 52, Cefditoren Pivoxil]	104	–
CC[C@H]1OC(=O)[C@H](C)[C@@H](O[C@H]2C[C@@](C)(OC)[C@@H](O)[C@H](C)O2)[C@H](C)[C@@H](O[C@@H]2O[C@H](C)C[C@H](N(C)C)[C@H]2O)[C@](C)(O)C[C@@H](C)CN(C)[C@H](C)[C@@H](O)[C@]1(C)O [Compound 53, Azithromycin]	109	–
NC(=O)c1cccnc1 [Compound 54, Nicotinamide (Vitamin B3)]	–	XT-I Activity [%] [1]: 116%
C[C@H]1COc2c(N3CCN(C)CC3)c(F)cc3c(=O)c(C(=O)O)cn1c23 [Compound 55, Levofloxacin]	111	–
COc1ccc2[nH]cc(CCNC(C)=O)c2c1 [Compound 56, Melatonin]	99	–
C[C@@H]1CC[C@H]2[C@@H](C)C(=O)O[C@@H]3O[C@@]4(C)CC[C@@H]1[C@]32OO4 [Compound 57, Artemisinin]	93	–
O=c1c(-c2ccc(O)cc2)coc2cc(O)cc(O)c12 [Compound 58, Genistein]	94	–
CC(=O)NC[C@H]1CN(c2ccc(N3CCOCC3)c(F)c2)C(=O)O1 [Compound 59, Linezolid]	103	–
Clc1ccccc1C(c1ccccc1)(c1ccccc1)n1ccnc1 [Compound 60, Clotrimazole]	101	–
Nc1ncnc2c1ncn2[C@@H]1O[C@H](CO)[C@@H](O)[C@H]1O [Compound 61, Adenosine]	103	–
C[C@]12CCC(=O)C=C1CC[C@@H]1[C@@H]2[C@@H](O)C[C@@]2(C)[C@H]1CC[C@]2(O)C(=O)CO [Compound 62, Hydrocortisone]	122	–
Nc1ccc(S(=O)(=O)Nc2ncccn2)cc1 [Compound 63, Sulfadiazine]	108	–
Oc1c(Cl)cc(Cl)c2cccnc12 [Compound 64, Chloroxine]	121	–
COc1cccc2c1C(=O)c1c(O)c3c(c(O)c1C2=O)C[C@@](O)(C(=O)CO)C[C@@H]3O[C@H]1C[C@H](N)[C@H](O)[C@H](C)O1.Cl [Compound 67, Doxorubicin (Adriamycin) HCl]	–	XT-I Activity [%] [1]: 113%
O=c1[nH]cc(F)c(=O)[nH]1 [Compound 78, Fluorouracil (5-Fluoracil, 5-FU)]	–	XT-I Activity [%] [1]: 137%
C/C(=C\c1csc(C)n1)[C@@H]1C[C@@H]2O[C@@H]2CCC[C@H](C)[C@H](O)[C@@H](C)C(=O)C(C)(C)[C@@H](O)CC(=O)O1 [Compound 79, Epothilone A]	119	–
COc1cc(NS(=O)(=O)c2ccc(N)cc2)nc(OC)n1 [Compound 91, Sulphadimethoxine]	–	XT-I Activity [%] [1]: 132%
Cl.N=c1ccn2c(n1)O[C@H]1[C@H](O)[C@@H](CO)O[C@H]12 [Compound 92, Cyclocytidine HCl]	–	XT-I Activity [%] [1]: 142%
Cl.Nc1ncnc2nc[nH]c12 [Compound 93, Adenine HCl]	–	XT-I Activity [%] [1]: 146%
COc1cc(CNC(=O)CCCC/C=C/C(C)C)ccc1O [Compound 94, Capsaicin (Vanilloid)]	–	XT-I Activity [%]: 135%
Bleomycin sulfate [Compound 96]	–	XT-I Activity [%] [1]: 149%
Ginkgolide B [Compound 69]	–	XT-I Activity [%] [1]: 100%
Oxytetracycline (Terramycin) [Compound 74]	–	XT-I Activity [%] [2]: 17%; XT-I Activity [%] [1]: 17%
Vitamin B12 [Compound 65]	–	XT-I Activity [%] [1]: 94%
